From patent US20050245541A1, “Methods for treating alcoholism” (priority 2004, published 2005)
“Also recorded” adds a separate entry of the source.

Experiments:
[1] = system: rat model of alcohol self-administration; experiment: Ethanol self-administration (operant lever press) in trained rats; assay type: in vivo, rat (male Wistar)
Experimental: FIG. 1B is a bar graph showing the amount of ethanol (EtOH) consumed in g/kg at various doses of naltrexone. Based on the number of lever press responses following a dose of naltrexone (FIG. 1A), the corresponding amount of absolute ethanol consumed (g/kg) was calculated. To calculate the amount of absolute ethanol consumed, divide the number of lever presses by 2 to obtain the number of earned reinforcements. From this number, the total volume of the alcohol “cocktail” (10% EtOH in 0.04% saccharine solution) consumed was obtained. The grams of absolute EtOH consumed=the total “cocktail” volume consumed×10% EtOH×0.793 g EtOH/mL. The amount of ethanol (g) divided by the animal's weight (kg) gives the amount of absolute ethanol consumed in g/kg.
(§1) Male Wistar rats (starting weight of 200±30 grams; Charles River Laboratories, Mass.) were individually housed with free access to food and water. The vivarium was maintained within the temperature and relative humidity range specified within the Guide for Care and Use of Laboratory Animals (NIH Publication No. 86-23, revised 1985). These conditions were recorded once daily throughout the study. The vivarium was on a 12 hour light/dark schedule. All animal studies were reviewed and approved by the Alkermes' IACUC (protocol #04-2A).
Animals were trained daily in an operant chamber to press a lever to receive access to an ethanol cocktail as a reinforcer using a saccharin fading procedure. […] The final ethanol cocktail contained 10% ethanol in 0.04% saccharine. Each session lasted 30 minutes, during which the rat could press the lever twice to gain access to 0.1 mL of the ethanol cocktail. The operant chamber (Coulbourne Instruments, Allentown, Pa.) is a computer-controlled automated system which recorded the number of lever presses completed by a rat. At the end of the training period (6-8 weeks), rats which consistently drank a sufficient quantity of ethanol to produce a pharmacological effect (minimum intake of 0.6 g/kg/hour) were selected to participate in the drug studies. These trained rats were used repeatedly throughout these studies to control for intra-subject variability. All drugs were administered acutely with a minimum of a 2 day drug washout period.
Naltrexone was prepared daily in 0.9% saline and administered subcutaneously (SC). The dopamine D2 partial agonist aripiprazole was suspended in 3% carboxymethyl cellulose; a total volume of 1 mL/kg of this suspension was delivered orally (PO) to the rat using a gavage tube. See Table 1 for source and lot numbers of the drugs tested.
The ability of naltrexone to reduce ethanol drinking (i.e., decrease the number of lever presses) was assessed in this animal model of self administration of ethanol. Thirty minutes after the administration of naltrexone (0-6 mg/kg, SC), the animals were placed in the operant chamber and allowed to lever press for the 10% ethanol cocktail. The total number of lever presses was recorded over the 30 minute test session. The rats were repeatedly dosed with naltrexone to generate a dose-response curve for each individual animal.
The dopamine D2 partial agonist aripiprazole was coadministered with naltrexone to determine if it affected naltrexone's ability to decease ethanol drinking. The dose of naltrexone used in this series of studies was the ED50 (that is, the dose of naltrexone that produced a 50% decrease in lever responses for ethanol as determined from the dose-response study). This dose allows one to determine if the coadministered drugs impaired or enhanced naltrexone's effect on ethanol drinking. Aripiprazole was administered orally 30 minutes prior to a naltrexone injection (SC) (i.e., 60 minutes prior to the beginning of the ethanol drinking test session). The number of lever presses for the ethanol cocktail was recorded at the end of the 30 minute session.

[2] = system: audiogenic-induced convulsions in mice exhibiting symptoms of alcohol withdrawal; experiment: Audiogenic-induced convulsions in mouse model of alcohol withdrawal; assay type: in vivo, mouse (male C57BL/6); settings: for Withdrawal Rating (mean ± sem), behavioral response scale of 1-4: mouse
Experimental: as §1, with “C57BL/6 mice” for “Wistar rats”, “15-18” for “200±30”, “were” for “were individually”, “housed in groups of 4 on a ventilated rack” for “housed”, “#04-8A).” for “#04-2A).”
Persistent high alcohol levels in blood and brain are required to develop withdrawal symptoms following termination of alcohol availability. […] Alcohol is provided in a nutritionally balanced liquid diet. This diet becomes the animal's sole source of food and water. While the experimenter controls the duration of the alcohol exposure, the animal determines the dose and pattern of consumption.
After a 3-5 day acclimation period, the mice were individually identified (tail mark with permanent marker) and weighed. The normal rodent chow and water was replaced with a nutritionally complete control liquid diet (Bio-Serv, Lieber-DeCarli diet) for a 5-7 day habituation period. Acquisition of EtOH drinking in mice involved a gradually escalating ethanol concentration procedure. Ethanol treated animals received an EtOH liquid diet containing 1.5% EtOH for 5-7 days. The EtOH concentration was increased every 5-7 days to a final concentration of 6.7%. The liquid diet was administered in a screw capped graduated 100 mL liquid feeding tube mounted inside the cage. The volume of remaining diet was measured and the diet changed daily. The mice were observed daily and weighed every week to assure adequate EtOH diet intake.
Development of alcohol withdrawal symptoms requires a cycle of alcohol/no alcohol. The animals were given a period of 14 days of the EtOH diet (6.7%), 2 days of control diet (balanced isocalorically with maltose dextrin replacing the EtOH) and 5-6 days of the EtOH diet.
One of the hallmark symptoms of alcohol withdrawal in mice is the occurrence of convulsions. These can occur spontaneously, from handling the animal, from a sudden loud sound (audiogenic) or from subthreshold doses of chemical convulsants. For this series of studies, the occurrence of audiogenic-induced convulsions was used as a measure of alcohol withdrawal. […]
Mice from each cage were randomly assigned to one of three groups, vehicle+saline, aripiprazole (10 mg/kg, PO)+saline, or aripiprazole (10 mg/kg, PO)+naltrexone (3 mg/kg, IP). […] Each mouse's behavior in response to the bell was observed by two investigators and the agreed upon results were recorded.

[3] = system: rat model of alcohol self-administration; experiment: Ethanol self-administration (operant lever press) in trained rats; assay type: in vivo, rat (male Wistar); settings: naltrexone 0.5 mg/kg sc, 0.1% saccharine solution substituted for ethanol cocktail

| Compound | Number of Lever Presses (mean ± sem) ([1]; aripiprazole 0.1 mg/kg PO + naltrexone 0.1 mg/kg SC, rat) | Number of Lever Presses (mean ± sem) ([1]; aripiprazole 1.0 mg/kg PO + naltrexone 0.1 mg/kg SC, rat) | Number of Lever Presses (mean ± sem) ([1]; aripiprazole 10.0 mg/kg PO + naltrexone 0.1 mg/kg SC, rat) | Number of Lever Presses (mean ± sem) ([1]; aripiprazole 10.0 mg/kg PO, no naltrexone, rat) | Ethanol-motivated lever presses, combination of naltrexone and aripiprazole versus naltrexone alone ([1]; aripiprazole 0.1-10 mg/kg PO + naltrexone SC, rat) | Withdrawal Rating (mean ± sem), behavioral response scale of 1-4 ([2]; aripiprazole 10 mg/kg PO + naltrexone 3 mg/kg) | Withdrawal Rating (mean ± sem), behavioral response scale of 1-4 ([2]; aripiprazole 10 mg/kg PO + saline) | Anticonvulsant effect on the audiogenic convulsion test ([2]; aripiprazole 10 mg/kg PO with or without naltrexone, p=0.004) | Specificity of decrease in drinking: lever pressing for saccharine versus ethanol cocktail [3] | Number of Lever Presses (mean ± sem) ([1]; aripiprazole 0.0 mg/kg PO (vehicle) + naltrexone 0.1 mg/kg SC, rat) | Decrease in lever presses versus baseline and vehicle control (significance) ([1]; lowest dose of naltrexone tested, 0.05 mg/kg) | Decrease in the number of lever presses compared to baseline ([1]; naltrexone alone group of the aripiprazole interaction study (naltrexone 0.1 mg/kg SC per Table 4)) [%] | Difference between naltrexone and non-naltrexone groups on the audiogenic convulsion test ([2]; naltrexone 3 mg/kg coadministered with aripiprazole 10 mg/kg PO) |
| --- | --- | --- | --- | --- | --- | --- | --- | --- | --- | --- | --- | --- | --- |
| O=C1CCc2ccc(OCCCCN3CCN(c4cccc(Cl)c4Cl)CC3)cc2N1 [Aripiprazole, 7-{4-[4-(2,3-dichlorophenyl)-1-piperazinyl]-butoxy}-3-,4-dihydro carbostyril] | 42 ± 11 | 45 ± 8 | 37 ± 7 | 118 ± 26 | no statistical difference | 1.0 ± 0.0 | 1.0 ± 0.0 | significant drug effect (anticonvulsant effect) | – | – | – | – | – |
| O=C1CC[C@@]2(O)[C@H]3Cc4ccc(O)c5c4[C@@]2(CCN3CC2CC2)[C@H]1O5 [Naltrexone] | – | – | – | – | – | – | – | – | to the same degree as under the non-drug baseline condition; also recorded: selective for decreasing ethanol drinking in rats (but not saccharine drinking) | 62 ± 13 | no significant decrease | 47.54 | no statistical differences |
